Literature values in patent publication US20050148552A1, “Methods of treating eczema” (priority 2003, published 2005).
Counter-ions that a name gives are not always drawn.

Columns and labels:
[1] = 250 mg every six hours over a twenty-four hour period
[2] = single dose of two 100 mg minocycline HCl tablets or capsules, adult humans

average minocycline serum level [2] [µg/mL] | SMILES | peak serum level [1]
 | CN(C)[C@@H]1C(O)=C(C(N)=O)C(=O)[C@@]2(O)C(O)=C3C(=O)c4c(O)cccc4[C@@](C)(O)[C@H]3C[C@@H]12 [tetracycline HCl] | approximately 3 μg/ml
2.24 | CN(C)c1ccc(O)c2c1C[C@H]1C[C@H]3[C@H](N(C)C)C(O)=C(C(N)=O)C(=O)[C@@]3(O)C(O)=C1C2=O [minocycline HCl] | 
